From ChEMBL document CHEMBL4507266, “Data for DCP probe BAY-784” (2021)

Legend:
[1] = molecular target: Rho-associated protein kinase 1 (Homo sapiens) (UniProt Q13464); details: Compound concentration 1000.0 nM
[2] = molecular target: Mitogen-activated protein kinase kinase kinase 19 (Homo sapiens) (UniProt Q56UN5); details: Compound concentration 1000.0 nM
[3] = molecular target: Sigma non-opioid intracellular receptor 1 (Homo sapiens) (UniProt Q99720); details: Compound concentration 10.0 uM
[4] = molecular target: Dual specificity tyrosine-phosphorylation-regulated kinase 1B (Homo sapiens) (UniProt Q9Y463); details: Compound concentration 1000.0 nM
[5] = molecular target: Atypical kinase COQ8A, mitochondrial (Homo sapiens) (UniProt Q8NI60); details: Compound concentration 1000.0 nM
[6] = tested on: Epidermal growth factor receptor (Homo sapiens), P00533 [L858R,T790M]; details: Compound concentration 1000.0 nM
[7] = molecular target: T1, Alpha-2B adrenergic receptor (Homo sapiens) (UniProt P18089); details: Compound concentration 10.0 uM
T1 sequence (whole entry): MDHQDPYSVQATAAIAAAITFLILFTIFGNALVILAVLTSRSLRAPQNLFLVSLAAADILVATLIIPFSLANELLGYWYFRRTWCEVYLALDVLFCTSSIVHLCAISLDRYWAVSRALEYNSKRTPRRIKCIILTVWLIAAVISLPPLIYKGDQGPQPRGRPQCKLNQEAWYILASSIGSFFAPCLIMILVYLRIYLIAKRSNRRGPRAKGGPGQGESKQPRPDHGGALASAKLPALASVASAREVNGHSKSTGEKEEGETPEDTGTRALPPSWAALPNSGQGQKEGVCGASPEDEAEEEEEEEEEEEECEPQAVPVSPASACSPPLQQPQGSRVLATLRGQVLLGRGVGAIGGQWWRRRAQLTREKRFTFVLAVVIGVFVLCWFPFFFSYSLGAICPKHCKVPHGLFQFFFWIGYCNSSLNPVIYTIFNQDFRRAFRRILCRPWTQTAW

[8] = molecular target: Misshapen-like kinase 1 (Homo sapiens) (UniProt Q8N4C8); details: Compound concentration 1000.0 nM
[9] = molecular target: Rhodopsin kinase GRK7 (Homo sapiens) (UniProt Q8WTQ7); details: Compound concentration 1000.0 nM
[10] = molecular target: Bone morphogenetic protein receptor type-1A (Homo sapiens) (UniProt P36894); details: Compound concentration 1000.0 nM
[11] = molecular target: Sodium-dependent serotonin transporter (Homo sapiens) (UniProt P31645); details: Compound concentration 10.0 uM
[12] = molecular target: Dual specificity mitogen-activated protein kinase kinase 7 (Homo sapiens) (UniProt O14733); details: Compound concentration 1000.0 nM
[13] = molecular target: Ribosomal protein S6 kinase alpha-5 (Homo sapiens) (UniProt O75582); details: Compound concentration 1000.0 nM
[14] = tested on: Leucine-rich repeat serine/threonine-protein kinase 2 (Homo sapiens), Q5S007 [G2019S]; details: Compound concentration 1000.0 nM
[15] = molecular target: Phosphorylase b kinase regulatory subunit alpha, liver isoform (Homo sapiens) (UniProt P46019); details: Compound concentration 1000.0 nM
[16] = molecular target: Serine/threonine-protein kinase DCLK2 (Homo sapiens) (UniProt Q8N568); details: Compound concentration 1000.0 nM
[17] = tested on: Mast/stem cell growth factor receptor Kit (Homo sapiens), P10721 [L576P]; details: Compound concentration 1000.0 nM
[18] = molecular target: Dual specificity protein kinase CLK1 (Homo sapiens) (UniProt P49759); details: Compound concentration 1000.0 nM
[19] = molecular target: Calcium/calmodulin-dependent protein kinase type II subunit gamma (Homo sapiens) (UniProt Q13555); details: Compound concentration 1000.0 nM
[20] = molecular target: Non-receptor tyrosine-protein kinase TNK1 (Homo sapiens) (UniProt Q13470); details: Compound concentration 1000.0 nM
[21] = molecular target: Serine/threonine-protein kinase tousled-like 1 (Homo sapiens) (UniProt Q9UKI8); details: Compound concentration 1000.0 nM
[22] = molecular target: Tyrosine-protein kinase Fes/Fps (Homo sapiens) (UniProt P07332); details: Compound concentration 1000.0 nM
[23] = molecular target: Serine/threonine-protein kinase 17B (Homo sapiens) (UniProt O94768); details: Compound concentration 1000.0 nM
[24] = molecular target: Phosphatidylinositol 4,5-bisphosphate 3-kinase catalytic subunit gamma isoform (Homo sapiens) (UniProt P48736); details: Compound concentration 1000.0 nM
[25] = molecular target: Serine/threonine-protein kinase PAK 3 (Homo sapiens) (UniProt O75914); details: Compound concentration 1000.0 nM
[26] = molecular target: Dual specificity protein kinase TTK (Homo sapiens) (UniProt P33981); details: Compound concentration 1000.0 nM
[27] = molecular target: Cyclin-dependent kinase 4 (Homo sapiens) (UniProt P11802); details: Compound concentration 1000.0 nM
[28] = molecular target: Calcium/calmodulin-dependent protein kinase type 1 (Homo sapiens) (UniProt Q14012); details: Compound concentration 1000.0 nM
[29] = molecular target: Ephrin type-B receptor 2 (Homo sapiens) (UniProt P29323); details: Compound concentration 1000.0 nM
[30] = molecular target: BDNF/NT-3 growth factors receptor (Homo sapiens) (UniProt Q16620); details: Compound concentration 1000.0 nM
[31] = molecular target: Serine/threonine-protein kinase Nek5 (Homo sapiens) (UniProt Q6P3R8); details: Compound concentration 1000.0 nM
[32] = tested on: Tyrosine-protein kinase ABL1 (Homo sapiens), P00519 [T315I]; details: Compound concentration 1000.0 nM
[33] = molecular target: Phosphatidylinositol 4,5-bisphosphate 3-kinase catalytic subunit beta isoform (Homo sapiens) (UniProt P42338); details: Compound concentration 1000.0 nM
[34] = molecular target: LIM domain kinase 1 (Homo sapiens) (UniProt P53667); details: Compound concentration 1000.0 nM
[35] = molecular target: MAP kinase-interacting serine/threonine-protein kinase 2 (Homo sapiens) (UniProt Q9HBH9); details: Compound concentration 1000.0 nM
[36] = molecular target: MAP/microtubule affinity-regulating kinase 4 (Homo sapiens) (UniProt Q96L34); details: Compound concentration 1000.0 nM
[37] = molecular target: Serine/threonine-protein kinase BRSK1 (Homo sapiens) (UniProt Q8TDC3); details: Compound concentration 1000.0 nM
[38] = tested on: Fibroblast growth factor receptor 3 (Homo sapiens), P22607 [G697C]; details: Compound concentration 1000.0 nM

Sequence of Calcium/calmodulin-dependent protein kinase type II subunit gamma (Homo sapiens) (Q13555 whole entry): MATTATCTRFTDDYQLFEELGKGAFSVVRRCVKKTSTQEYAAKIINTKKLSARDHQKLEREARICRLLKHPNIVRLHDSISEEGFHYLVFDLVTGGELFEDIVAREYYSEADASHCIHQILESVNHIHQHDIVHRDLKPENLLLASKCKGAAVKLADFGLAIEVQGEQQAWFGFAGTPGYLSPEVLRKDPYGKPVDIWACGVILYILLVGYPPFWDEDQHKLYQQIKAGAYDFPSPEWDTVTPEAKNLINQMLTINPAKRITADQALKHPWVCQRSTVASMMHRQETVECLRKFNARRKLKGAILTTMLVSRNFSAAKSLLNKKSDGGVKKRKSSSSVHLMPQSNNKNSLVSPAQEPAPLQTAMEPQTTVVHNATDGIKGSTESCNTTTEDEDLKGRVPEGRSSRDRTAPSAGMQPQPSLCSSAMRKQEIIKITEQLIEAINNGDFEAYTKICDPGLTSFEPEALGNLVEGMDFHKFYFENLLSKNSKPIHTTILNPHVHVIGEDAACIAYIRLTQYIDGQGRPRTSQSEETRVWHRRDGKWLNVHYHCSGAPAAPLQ
Sequence of LIM domain kinase 1 (Homo sapiens) (P53667 whole entry, looked up, the tested form may be a part): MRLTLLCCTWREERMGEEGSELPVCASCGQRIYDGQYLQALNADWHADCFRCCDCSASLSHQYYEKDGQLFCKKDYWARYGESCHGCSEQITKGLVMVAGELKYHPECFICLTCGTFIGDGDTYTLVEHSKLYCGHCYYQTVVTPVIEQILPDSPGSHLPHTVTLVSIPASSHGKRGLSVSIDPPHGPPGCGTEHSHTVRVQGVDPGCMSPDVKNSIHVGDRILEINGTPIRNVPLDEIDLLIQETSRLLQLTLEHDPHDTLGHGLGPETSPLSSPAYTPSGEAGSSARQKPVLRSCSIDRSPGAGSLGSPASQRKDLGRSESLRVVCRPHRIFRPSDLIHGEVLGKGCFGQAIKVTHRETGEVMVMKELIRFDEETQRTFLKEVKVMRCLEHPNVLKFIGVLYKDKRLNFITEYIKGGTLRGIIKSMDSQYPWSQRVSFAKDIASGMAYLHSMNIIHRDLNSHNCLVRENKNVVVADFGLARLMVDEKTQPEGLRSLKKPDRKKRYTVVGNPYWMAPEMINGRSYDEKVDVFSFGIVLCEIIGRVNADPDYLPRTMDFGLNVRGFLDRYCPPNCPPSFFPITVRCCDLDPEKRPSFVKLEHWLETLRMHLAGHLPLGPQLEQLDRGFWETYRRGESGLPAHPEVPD
Sequence of Misshapen-like kinase 1 (Homo sapiens) (Q8N4C8 whole entry, looked up): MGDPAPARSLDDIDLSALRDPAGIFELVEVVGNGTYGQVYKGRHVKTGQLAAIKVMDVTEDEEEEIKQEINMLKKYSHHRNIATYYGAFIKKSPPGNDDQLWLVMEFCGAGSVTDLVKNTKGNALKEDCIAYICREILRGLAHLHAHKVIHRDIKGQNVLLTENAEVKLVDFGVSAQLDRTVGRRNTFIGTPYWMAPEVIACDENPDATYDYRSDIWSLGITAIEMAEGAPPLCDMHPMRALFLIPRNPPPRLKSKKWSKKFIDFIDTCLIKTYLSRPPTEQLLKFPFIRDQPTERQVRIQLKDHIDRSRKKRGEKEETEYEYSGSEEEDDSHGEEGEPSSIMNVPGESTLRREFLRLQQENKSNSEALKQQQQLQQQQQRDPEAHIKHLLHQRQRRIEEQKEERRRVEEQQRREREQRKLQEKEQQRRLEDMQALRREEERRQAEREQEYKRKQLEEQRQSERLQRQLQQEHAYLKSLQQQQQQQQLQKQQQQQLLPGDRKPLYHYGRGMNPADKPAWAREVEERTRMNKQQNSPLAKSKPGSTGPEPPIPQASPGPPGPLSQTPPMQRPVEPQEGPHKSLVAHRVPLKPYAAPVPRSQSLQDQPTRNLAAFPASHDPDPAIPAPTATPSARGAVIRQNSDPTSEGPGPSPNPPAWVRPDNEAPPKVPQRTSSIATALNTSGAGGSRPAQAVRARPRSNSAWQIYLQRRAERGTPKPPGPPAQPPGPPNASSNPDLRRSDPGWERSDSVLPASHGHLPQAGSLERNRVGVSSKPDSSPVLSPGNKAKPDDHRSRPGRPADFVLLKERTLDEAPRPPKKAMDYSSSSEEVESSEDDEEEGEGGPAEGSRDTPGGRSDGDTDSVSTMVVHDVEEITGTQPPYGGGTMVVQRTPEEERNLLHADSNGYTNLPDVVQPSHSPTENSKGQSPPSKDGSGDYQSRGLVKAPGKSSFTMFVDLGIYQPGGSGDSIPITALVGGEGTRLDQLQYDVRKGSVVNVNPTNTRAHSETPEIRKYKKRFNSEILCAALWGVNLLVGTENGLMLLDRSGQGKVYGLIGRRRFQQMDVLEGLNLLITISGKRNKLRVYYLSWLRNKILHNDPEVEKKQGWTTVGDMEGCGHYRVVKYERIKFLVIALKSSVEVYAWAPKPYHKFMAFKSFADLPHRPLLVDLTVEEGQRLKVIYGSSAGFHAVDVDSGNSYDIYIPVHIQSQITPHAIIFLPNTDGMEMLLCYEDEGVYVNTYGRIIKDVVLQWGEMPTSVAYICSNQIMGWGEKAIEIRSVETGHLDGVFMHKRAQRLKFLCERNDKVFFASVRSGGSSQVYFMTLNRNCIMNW
Sequence of Serine/threonine-protein kinase BRSK1 (Homo sapiens) (Q8TDC3 whole entry): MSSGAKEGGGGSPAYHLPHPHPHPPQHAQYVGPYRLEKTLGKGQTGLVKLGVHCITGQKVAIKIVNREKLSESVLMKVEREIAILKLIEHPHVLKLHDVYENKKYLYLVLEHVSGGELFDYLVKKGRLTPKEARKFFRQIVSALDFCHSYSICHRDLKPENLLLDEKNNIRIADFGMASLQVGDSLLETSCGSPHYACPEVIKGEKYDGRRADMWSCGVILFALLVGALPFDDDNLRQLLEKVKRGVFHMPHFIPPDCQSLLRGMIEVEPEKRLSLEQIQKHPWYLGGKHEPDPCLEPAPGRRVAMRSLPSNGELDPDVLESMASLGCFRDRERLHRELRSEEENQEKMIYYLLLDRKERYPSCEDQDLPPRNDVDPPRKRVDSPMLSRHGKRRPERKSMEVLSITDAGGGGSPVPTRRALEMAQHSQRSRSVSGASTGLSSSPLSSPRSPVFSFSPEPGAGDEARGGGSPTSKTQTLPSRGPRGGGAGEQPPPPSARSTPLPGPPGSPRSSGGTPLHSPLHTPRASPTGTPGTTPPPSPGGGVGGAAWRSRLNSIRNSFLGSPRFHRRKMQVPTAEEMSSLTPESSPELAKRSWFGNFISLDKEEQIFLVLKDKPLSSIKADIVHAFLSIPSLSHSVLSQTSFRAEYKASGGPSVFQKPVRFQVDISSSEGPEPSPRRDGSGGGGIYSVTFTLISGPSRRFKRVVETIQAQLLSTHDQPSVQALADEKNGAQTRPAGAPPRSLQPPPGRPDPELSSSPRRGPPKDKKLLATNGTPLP
Sequence of Phosphatidylinositol 4,5-bisphosphate 3-kinase catalytic subunit gamma isoform (Homo sapiens) (P48736 whole entry, looked up, canonical isoform): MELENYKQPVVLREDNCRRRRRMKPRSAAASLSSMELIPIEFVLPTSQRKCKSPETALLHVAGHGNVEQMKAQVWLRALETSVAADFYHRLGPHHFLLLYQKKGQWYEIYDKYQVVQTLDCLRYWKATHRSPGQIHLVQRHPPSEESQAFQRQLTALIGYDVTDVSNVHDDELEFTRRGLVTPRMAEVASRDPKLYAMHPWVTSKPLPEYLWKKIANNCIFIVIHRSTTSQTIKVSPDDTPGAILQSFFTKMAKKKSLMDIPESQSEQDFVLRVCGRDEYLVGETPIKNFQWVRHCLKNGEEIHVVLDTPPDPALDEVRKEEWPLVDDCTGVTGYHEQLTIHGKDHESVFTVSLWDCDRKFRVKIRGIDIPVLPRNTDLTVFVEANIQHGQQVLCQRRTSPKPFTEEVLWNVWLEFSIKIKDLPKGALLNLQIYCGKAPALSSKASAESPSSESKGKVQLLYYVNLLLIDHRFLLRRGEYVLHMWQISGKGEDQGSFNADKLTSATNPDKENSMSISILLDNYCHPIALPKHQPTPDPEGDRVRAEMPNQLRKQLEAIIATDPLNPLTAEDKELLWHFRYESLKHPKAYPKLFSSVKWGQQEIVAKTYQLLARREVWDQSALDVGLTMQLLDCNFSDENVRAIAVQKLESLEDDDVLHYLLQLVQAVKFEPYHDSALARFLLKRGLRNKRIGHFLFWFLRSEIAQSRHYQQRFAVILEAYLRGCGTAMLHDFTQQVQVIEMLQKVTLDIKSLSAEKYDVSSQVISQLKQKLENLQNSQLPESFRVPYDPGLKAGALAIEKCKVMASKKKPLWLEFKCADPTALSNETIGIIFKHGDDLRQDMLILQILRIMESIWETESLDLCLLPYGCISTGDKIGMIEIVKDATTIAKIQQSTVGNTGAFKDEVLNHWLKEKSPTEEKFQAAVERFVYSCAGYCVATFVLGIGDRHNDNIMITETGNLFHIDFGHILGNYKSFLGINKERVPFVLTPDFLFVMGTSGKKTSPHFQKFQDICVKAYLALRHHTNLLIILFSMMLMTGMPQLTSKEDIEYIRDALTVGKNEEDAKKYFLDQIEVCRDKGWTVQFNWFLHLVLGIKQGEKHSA
Sequence of MAP kinase-interacting serine/threonine-protein kinase 2 (Homo sapiens) (Q9HBH9 whole entry, looked up): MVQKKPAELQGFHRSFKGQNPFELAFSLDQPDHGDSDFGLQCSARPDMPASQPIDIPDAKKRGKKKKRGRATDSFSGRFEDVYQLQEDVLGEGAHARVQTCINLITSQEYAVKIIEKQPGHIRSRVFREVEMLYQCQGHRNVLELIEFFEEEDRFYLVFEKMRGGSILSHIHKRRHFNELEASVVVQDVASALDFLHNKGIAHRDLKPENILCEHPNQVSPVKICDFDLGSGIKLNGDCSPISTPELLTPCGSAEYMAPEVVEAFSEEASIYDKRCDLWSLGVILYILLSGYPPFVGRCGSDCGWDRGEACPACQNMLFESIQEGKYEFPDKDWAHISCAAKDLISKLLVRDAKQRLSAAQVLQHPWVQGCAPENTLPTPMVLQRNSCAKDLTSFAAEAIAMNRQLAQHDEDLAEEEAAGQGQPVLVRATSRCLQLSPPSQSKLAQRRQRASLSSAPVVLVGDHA

O=C(NCc1ncc(C(F)(F)F)cc1Cl)c1ccc2c(c1)C1(CCS(=O)(=O)CC1)[C@H](C1CC1)N2S(=O)(=O)c1ccc(F)cc1 [BAY-784]
inactive: residual activity [1] 94% | residual activity [2] 73% | inhibition [3] 17.8% | residual activity [4] 100% | residual activity [5] 96% | residual activity [6] 95% | inhibition [7] 13.5% | residual activity [8] 90% | residual activity [9] 80% | residual activity [10] 100% | inhibition [11] -5.4% | residual activity [12] 72% | residual activity [13] 95% | residual activity [14] 100% | residual activity [15] 96% | residual activity [16] 100% | residual activity [17] 100% | residual activity [18] 100% | residual activity [19] 100% | residual activity [20] 88% | residual activity [21] 96% | residual activity [22] 100% | residual activity [23] 85% | residual activity [24] 82% | residual activity [25] 91% | residual activity [26] 78% | residual activity [27] 86% | residual activity [28] 84% | residual activity [29] 100% | residual activity [30] 60% | residual activity [31] 100% | residual activity [32] 90% | residual activity [33] 68% | residual activity [34] 100% | residual activity [35] 83% | residual activity [36] 100% | residual activity [37] 100% | residual activity [38] 100%

O=C(NCc1ncc(C(F)(F)F)cc1Cl)c1ccc2c(c1)C1(CCS(=O)(=O)CC1)[C@@H](C1CC1)N2S(=O)(=O)c1ccc(F)cc1 [BAY-786]
inactive: residual activity [1] 82% | residual activity [2] 69% | inhibition [3] 37.6% | residual activity [4] 100% | residual activity [5] 90% | residual activity [6] 75% | inhibition [7] -1.68% | residual activity [8] 85% | residual activity [9] 65% | residual activity [10] 100% | inhibition [11] -4.88% | residual activity [12] 79% | residual activity [13] 100% | residual activity [14] 100% | residual activity [15] 84% | residual activity [16] 100% | residual activity [17] 76% | residual activity [18] 100% | residual activity [19] 84% | residual activity [20] 88% | residual activity [21] 100% | residual activity [22] 93% | residual activity [23] 87% | residual activity [24] 95% | residual activity [25] 89% | residual activity [26] 100% | residual activity [27] 82% | residual activity [28] 97% | residual activity [29] 100% | residual activity [30] 71% | residual activity [31] 86% | residual activity [32] 84% | residual activity [33] 75% | residual activity [34] 91% | residual activity [35] 76% | residual activity [36] 100% | residual activity [37] 100% | residual activity [38] 80%
